Our source for the Ki values is patent US7217702B2, “Selective antagonists of A2A adenosine receptors” (Adenosine Therapeutics, LLC, priority 2004, dated 2007).

One may read the Ki as the equilibrium dissociation constant of an inhibitor or competing ligand from its target. A low value points to higher affinity.

Sequence of A2A adenosine receptor (P29274 whole entry): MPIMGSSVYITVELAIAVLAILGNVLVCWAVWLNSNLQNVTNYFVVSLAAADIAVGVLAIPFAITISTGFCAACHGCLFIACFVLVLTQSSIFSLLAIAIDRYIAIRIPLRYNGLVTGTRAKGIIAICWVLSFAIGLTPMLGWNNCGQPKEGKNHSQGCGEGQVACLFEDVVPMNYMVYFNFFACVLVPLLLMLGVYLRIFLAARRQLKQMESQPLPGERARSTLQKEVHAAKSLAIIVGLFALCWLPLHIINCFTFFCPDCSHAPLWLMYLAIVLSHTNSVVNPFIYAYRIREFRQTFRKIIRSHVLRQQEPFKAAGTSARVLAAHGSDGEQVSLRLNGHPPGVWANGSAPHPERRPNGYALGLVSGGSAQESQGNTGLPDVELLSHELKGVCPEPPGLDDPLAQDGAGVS

This assay addresses A2A adenosine receptor (Homo sapiens, UniProt P29274). Nature of the assay: Human Ki of the compound tables. Conditions: receptor subtype not given. In kind it is binding.
Consider `Nc1nc(C#CC2(O)C3CC4CC(C3)CC2C4)nc2c1ncn2CC1CCC1` (centres unmarked) [Compound 46, 9-Cyclobutylmethyl-2-{2-[hydroxy-adamantan-2-yl]ethyn-1-yl}adenine], for which the Ki was below 100 nM.

`CCOC(=O)Cn1cnc2c(NC(CC)CC)nc(C#C[C@]3(O)CCC[C@@H](C)C3)nc21` [Compound 25, 9-(Acetic acid ethyl ester)-2-{2-[1(S)-hydroxy-3(R)-methyl-1-cyclohexyl]ethyn-1-yl}-N6-(3-pentyl)adenine]: the inhibition constant (Ki) is below 500 nM. `C[C@@H]1CCC[C@@](O)(C#Cc2nc(N)c3ncn(CC#N)c3n2)C1` [Compound 4, 9-Acetonitrile-2-{2-[1(S)-hydroxy-3(R)-methyl-1-cyclohexyl]ethyn-1-yl}adenine] came in with a Ki below 100 nM. The compound `CCC(CC)Nc1nc(C#C[C@]2(O)CCC[C@@H](C)C2)nc2c1ncn2CC(C)C` [Compound 13, 9-Isobutyl-2-{2-[1(S)-hydroxy-3(R)-methyl-1-cyclohexyl]ethyn-1-yl}-N6-(3-pentyl)adenine] came in with a Ki below 500 nM. The value for `CCCn1cnc2c(N)nc(C#CC3(O)C4CC5CC(C4)CC3C5)nc21` (centres unmarked) [Compound 41, 2-{2-[Hydroxy-adamantan-2-yl]ethyn-1-yl}-9-propyladenine] was below 100 nM; that for `C[C@@H]1CCC[C@@](O)(C#Cc2nc(N)c3ncn(CC#Cc4cccs4)c3n2)C1` [Compound 10] was below 500 nM. The value for `Nc1nc(C#CC2(O)C3CC4CC(C3)CC2C4)nc2c1ncn2CC1CCCC1` (centres unmarked) [Compound 47, 9-Cyclopentylmethyl-2-{2-[hydroxy-adamantan-2-yl]ethyn-1-yl}adenine] was below 500 nM; that for `CCC(CC)Nc1nc(C#C[C@]2(O)CCC[C@@H](C)C2)nc2c1ncn2C1CCCC1` [Compound 15, 9-Cyclopentyl-2-{2-[1(S)-hydroxy-3(R)-methyl-1-cyclohexyl]ethyn-1-yl}-N6-(3-pentyl)adenine] was below 100 nM. With `CC(C)Cn1cnc2c(N)nc(C#CC3(O)C4CC5CC(C4)CC3C5)nc21` (centres unmarked) [Compound 44, 2-{2-[Hydroxy-adamantan-2-yl]ethyn-1-yl}-9-isobutyl-adenine], the Ki is below 500 nM. The value for `C#CCn1cnc2c(N)nc(C#CC3(O)CC4CCC3C4)nc21` (single isomer, unassigned) [Compound 61, 2-{2-[Hydroxy-norbornan-2-yl]ethyn-1-yl}-9-propargyladenine] was below 100 nM; that for `CCC(CC)Nc1nc(C#C[C@]2(O)CCC[C@@H](C)C2)nc2c1ncn2Cc1cccnc1` [Compound 28, 2-{2-[1(S)-Hydroxy-3(R)-methyl-1-cyclohexyl]ethyn-1-yl}-N6-(3-pentyl)-9-(pyridin-3-ylmethyl)adenine] was below 100 nM; that for `C#CCn1cnc2c(N[C@@H](C)CC)nc(C#C[C@]3(O)CCC[C@@H](C)C3)nc21` [Compound 32, N6-[(S)-(+)-sec-Butyl]-2-{2-[1(S)-hydroxy-3(R)-methyl-1-cyclohexyl]ethyn-1-yl}-9-propargyl-adenine] was below 100 nM. The value for `C#CCn1cnc2c(NCc3ccccn3)nc(C#C[C@]3(O)CCC[C@@H](C)C3)nc21` [Compound 37, 2-{2-[1(S)-Hydroxy-3(R)-methyl-1-cyclohexyl]ethyn-1-yl}-9-(propargyl)-N6-(pyridin-2-ylmethyl)adenine] was below 100 nM; that for `Nc1nc(C#CC2(O)C3CC4CC(C3)CC2C4)nc2c1ncn2CCO` (centres unmarked) [Compound 52, 2-{2-[Hydroxy-adamantan-2-yl]ethyn-1-yl}-9-(2-hydroxyethyl)adenine] was below 500 nM.

As to `Nc1nc(C#CC2(O)C3CC4CC(C3)CC2C4)nc2c1ncn2CC1CC1` (centres unmarked) [Compound 45, 9-Cyclopropylmethyl-2-{2-[hydroxy-adamantan-2-yl]ethyn-1-yl}adenine], the Ki was below 100 nM.

Compound `Cn1cnc2c(N)nc(C#CC3(O)C4CC5CC(C4)CC3C5)nc21` (centres unmarked) [Compound 39, 2-{2-[Hydroxy-adamantan-2-yl]ethyn-1-yl}-9-methyladenine] had a Ki below 100 nM. The value for `CCn1cnc2c(N)nc(C#CC3(O)C4CC5CC(C4)CC3C5)nc21` (centres unmarked) [Compound 40, 9-Ethyl-2-{2-[hydroxy-adamantan-2-yl]ethyn-1-yl}adenine] was below 100 nM; that for `Nc1nc(C#CC2(O)C3CC4CC(C3)CC2C4)nc2c1ncn2C1CCC1` (centres unmarked) [Compound 49, 9-Cyclobutyl-2-{2-[hydroxy-adamantan-2-yl]ethyn-1-yl}adenine] was below 100 nM. Compound `CCCCCCn1cnc2c(N)nc(C#CC3(O)C4CC5CC(C4)CC3C5)nc21` (centres unmarked) [Compound 42, 9-Hexyl-2-{2-[hydroxy-adamantan-2-yl]ethyn-1-yl}adenine] gave an inhibition constant (Ki) below 1000 nM.

Compound `CCC(CC)Nc1nc(C#C[C@]2(O)CCC[C@@H](C)C2)nc2c1ncn2Cc1c(C)noc1C` [Compound 30, 9-(3,5-Dimethyl-isoxazol-4-ylmethyl)-2-{2-[1(S)-hydroxy-3(R)-methyl-1-cyclohexyl]ethyn-1-yl}-N6-(3-pentyl)adenine] yielded a Ki below 100 nM. Regarding `C#CCCCn1cnc2c(NC(CC)CC)nc(C#C[C@]3(O)CCC[C@@H](C)C3)nc21` [Compound 18, 2-{2-[1(S)-Hydroxy-3(R)-methyl-1-cyclohexyl]ethyn-1-yl}-N6-(3-pentyl)-9-(pent-4-yne)adenine], the inhibition constant Ki was below 100 nM. Next, `CC[C@H](C)Nc1nc(C#C[C@]2(O)CCC[C@@H](C)C2)nc2c1ncn2Cc1c(C)noc1C` [Compound 33, N6-[(s)-(+)-sec-Butyl]-9-(3,5-dimethyl-isoxazol-4-ylmethyl)-2-{2-[1(S)-hydroxy-3(R)-methyl-1-cyclohexyl]ethyn-1-yl}adenine]: below 100 nM; `C#CCn1cnc2c(N)nc(C#CC3(O)CC4CCC3C4)nc21` (single isomer, unassigned) [Compound 60, 2-{2-[Hydroxy-norbornan-2-yl]ethyn-1-yl}-9-propargyladenine]: below 100 nM; `CCCn1cnc2c(NC(CC)CC)nc(C#C[C@]3(O)CCC[C@@H](C)C3)nc21` [Compound 12, 2-{2-[1(S)-Hydroxy-3(R)-methyl-1-cyclohexyl]ethyn-1-yl}-N6-(3-pentyl)-9-propyladenine]: below 100 nM. Compound `Nc1nc(C#CC2(O)C3CC4CC(C3)CC2C4)nc2c1ncn2CCCO` (centres unmarked) [Compound 53] came in with a Ki below 500 nM.

The compound `C=CCn1cnc2c(NC(CC)CC)nc(C#C[C@]3(O)CCC[C@@H](C)C3)nc21` [Compound 16, 9-Allyl-2-{2-[1(S)-hydroxy-3(R)-methyl-1-cyclohexyl]ethyn-1-yl}-N6-(3-pentyl)adenine] came in with a Ki below 100 nM. Next, `CCC(CC)Nc1nc(C#C[C@]2(O)CCC[C@@H](C)C2)nc2c1ncn2CC1CC1` [Compound 14, 9-Cyclopropylmethyl-2-{2-[1(S)-hydroxy-3(R)-methyl-1-cyclohexyl]ethyn-1-yl}-N6-(3-pentyl)adenine]: below 100 nM; `C[C@@H]1CCC[C@@](O)(C#Cc2nc(N)c3ncn(CC4CC4)c3n2)C1` [Compound 1, 9-Cyclopropylmethyl-2-{2-[1(S)-hydroxy-3(R)-methyl-1-cyclohexyl]ethyn-1-yl}adenine]: below 100 nM; `CCC(CC)Nc1nc(C#C[C@]2(O)CCC[C@@H](C)C2)nc2c1ncn2CCO` [Compound 19, 9-(2-Hydroxyethyl)-2-{2-[1(S)-hydroxy-3(R)-methyl-1-cyclohexyl]ethyn-1-yl}-N6-(3-pentyl)adenine]: below 100 nM.

As to `C#CCCn1cnc2c(N)nc(C#CC3(O)C4CC5CC(C4)CC3C5)nc21` (centres unmarked) [Compound 62, 9-(But-3-ynyl)-2-{2-[hydroxy-adamantan-2-yl]ethyn-1-yl}adenine], the Ki was below 100 nM.

For `C#CCn1cnc2c(N[C@@H](C)c3cccc4ccccc34)nc(C#C[C@]3(O)CCC[C@@H](C)C3)nc21` [Compound 35, 2-{2-[1(S)-Hydroxy-3(R)-methyl-1-cyclohexyl]ethyn-1-yl}-N6-[(s)-(−)-alpha-napthalen-1-yl-ethyl]-9-(propargyl)adenine], the Ki was below 500 nM.

As to `C[C@@H]1CCC[C@@](O)(C#Cc2nc(NCC(c3ccccc3)c3ccccc3)c3ncn(C)c3n2)C1` [Compound 34, N6-(2-Diphenylethyl)-2-{2-[1(S)-hydroxy-3(R)-methyl-1-cyclohexyl]ethyn-1-yl}-9-methyladenine], the Ki is below 500 nM. In turn, `Cc1noc(C)c1Cn1cnc2c(N)nc(C#C[C@]3(O)CCC[C@@H](C)C3)nc21` [Compound 8, 9-(3,5-Dimethyl-isoxazol-4-ylmethyl)-2-{2-[1(S)-hydroxy-3(R)-methyl-1-cyclohexyl]ethyn-1-yl}adenine] registered a Ki below 100 nM. The value for `C#CCn1cnc2c(N)nc(C#CCC3CCN(C(=O)OC)CC3)nc21` [Compound 63, 2-{3-[1-(Methoxycarbanoyl)piperidin-4-yl]propyn-1-yl}-9-propargyladenine] was below 100 nM. For the compound `CCC(CC)Nc1nc(C#C[C@]2(O)CCC[C@@H](C)C2)nc2c1ncn2CC1OCCO1` [Compound 22, 9-([1,3]-Dioxolan-2-ylmethyl)-2-{2-[1(S)-hydroxy-3(R)-methyl-1-cyclohexyl]ethyn-1-yl}-N6-(3-pentyl)adenine], the Ki was below 500 nM.

For `C#CCn1cnc2c(NCc3cccc(OC)c3)nc(C#C[C@]3(O)CCC[C@@H](C)C3)nc21` [Compound 36, 2-{2-[1(S)-Hydroxy-3(R)-methyl-1-cyclohexyl]ethyn-1-yl}-N6-(3-methoxybenzyl)-9-(propargyl)adenine], the Ki is below 100 nM. Next, `CCC(CC)Nc1nc(C#C[C@]2(O)CCC[C@@H](C)C2)nc2c1ncn2Cc1ccccc1` [Compound 27, 9-Benzyl-2-{2-[1(S)-hydroxy-3(R)-methyl-1-cyclohexyl]ethyn-1-yl}-N6-(3-pentyl)adenine]: below 100 nM. Next, `CCC(CC)Nc1nc(C#C[C@]2(O)CCC[C@@H](C)C2)nc2c1ncn2CCCO` [Compound 20, 2-{2-[1(S)-Hydroxy-3(R)-methyl-1-cyclohexyl]ethyn-1-yl}-9-(3-hydroxypropyl)-N6-(3-pentyl)adenine]: below 500 nM.
